Five molecules from ChEMBL document CHEMBL1201862, “PubChem BioAssay data set” (2004) can be followed below.

For assay [1], the target named is T1, Sphingosine 1-phosphate receptor 4 (Homo sapiens, UniProt O95977).
T1 sequence (O95977 whole entry): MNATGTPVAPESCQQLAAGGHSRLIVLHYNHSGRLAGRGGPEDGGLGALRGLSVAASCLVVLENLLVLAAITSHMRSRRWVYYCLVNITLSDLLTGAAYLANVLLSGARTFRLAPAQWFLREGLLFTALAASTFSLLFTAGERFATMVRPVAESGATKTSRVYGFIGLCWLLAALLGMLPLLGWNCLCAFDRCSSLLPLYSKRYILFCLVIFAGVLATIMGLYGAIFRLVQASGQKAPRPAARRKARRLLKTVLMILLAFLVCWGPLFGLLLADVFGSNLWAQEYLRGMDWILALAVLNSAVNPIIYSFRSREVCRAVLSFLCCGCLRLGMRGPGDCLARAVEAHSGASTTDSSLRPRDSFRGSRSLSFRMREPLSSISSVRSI
Put plainly: Late-stage fluorescence dose response cell-based assay to identify agonists of the Sphingosine 1-Phosphate Receptor 4 (S1P4): purchased compounds EC50. [Related pubchem assays (depositor defined):AID1509, AID1523, AID1563, AID1686, AID1701, AID1801]. The class given is functional.

Another assay has as its target Hexokinase (Trypanosoma brucei, UniProt Q38C41). The assay can be described thus: Confirmation assay for inhibitors of Trypanosoma brucei hexokinase 1-Analogue-first series. [Related pubchem assays (depositor defined):AID1430, AID1632, AID2516, AID2560, AID2579, AID2600, AID449725, AID492951]. The class given is functional.
A short description of assay [2]: Fluorescence-based cell-based high throughput dose response assay for inhibitors of the interaction of nucleotide-binding oligomerization domain containing 2 (NOD2) and the receptor-interacting serine-threonine kinase 2 (RIPK2). The class given is functional. As to conditions: Homo sapiens.
The target of a further assay is Beta Lactamase (Pseudomonas aeruginosa, UniProt Q932Y6). The assay can be described thus: beta-lactamase reporter inhibitor potency, dose response, artefact control for NOD2-RIPK2 interaction inhibitor project, BLA reporter cells, FRET fluorescence (AID 651552). The assay is classed as functional, cell-based.
In assay [3] the target is Glucose-6-phosphate 1-dehydrogenase (Homo sapiens, UniProt P11413). Put plainly: human G6PD enzyme inhibitors, dose response, selectivity assay for P. falciparum G6PD inhibitor project, biochemical, fluorescence (AID 504792). The assay is classed as functional.
Assay [4] concerns the target T2, Tyrosine-protein phosphatase non-receptor type 22 (Homo sapiens, UniProt Q9Y2R2). Put plainly: LYP (PTPN22) phosphatase inhibitor potency, SAR follow-up, biochemical, pCAP fluorogenic substrate, fluorescence, set 3 (AID 449727). The assay is classed as functional.
In assay [5] the target is Tyrosine-protein phosphatase non-receptor type 12 (Homo sapiens, UniProt Q05209). Put plainly: SAR Selectivity Analysis of small molecule inhibitors of PEST using pCAP in a fluorescence assay. [Related pubchem assays (depositor defined):AID1779, AID1784, AID2135]. The class given is functional.
Assay [6] has as its target T2, Tyrosine-protein phosphatase non-receptor type 22. The assay can be described thus: SAR LYP1 Fluorescent Assay using OMFP substrate for In Vitro dose response studies - Set 3. [Related pubchem assays (depositor defined):AID1779, AID1784, AID2140, AID2686]. The class given is functional.
A short description of assay [7]: HeLa cell cytotoxicity, dose response, cytotoxicity control for MgcRacGAP inhibitor project (AID 624300). The class given is functional.
The next assay concerns the target T3, Mucolipin-3 (Homo sapiens, UniProt Q8TDD5).
T3 sequence (Q8TDD5 whole entry): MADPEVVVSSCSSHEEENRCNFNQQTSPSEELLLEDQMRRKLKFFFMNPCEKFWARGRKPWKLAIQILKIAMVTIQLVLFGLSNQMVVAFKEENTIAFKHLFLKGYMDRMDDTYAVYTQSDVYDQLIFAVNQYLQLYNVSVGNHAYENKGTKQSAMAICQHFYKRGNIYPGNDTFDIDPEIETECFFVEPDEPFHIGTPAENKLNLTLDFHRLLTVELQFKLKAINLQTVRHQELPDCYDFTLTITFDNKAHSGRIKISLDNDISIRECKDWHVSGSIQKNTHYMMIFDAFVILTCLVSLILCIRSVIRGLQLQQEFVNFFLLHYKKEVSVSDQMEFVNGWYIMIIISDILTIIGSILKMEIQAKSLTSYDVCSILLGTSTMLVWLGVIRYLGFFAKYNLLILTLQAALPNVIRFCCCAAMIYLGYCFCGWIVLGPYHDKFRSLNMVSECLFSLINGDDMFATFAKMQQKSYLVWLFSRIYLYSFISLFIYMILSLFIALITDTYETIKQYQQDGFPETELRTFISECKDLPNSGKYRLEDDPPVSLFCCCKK
The assay can be described thus: Fluorescence counterscreen assay for […] agonists: dose response cell-based high-throughput screening assay to identify agonists of the transient receptor potential channel ML3 (TRPML3). [Related pubchem assays: 1424, 1448 ]. The assay is classed as functional. On the technique in general: A counterscreen serves to expose hits that act by an unwanted route or on another target.

In assay [8] the target is T4, Rac GTPase-activating protein 1 (Homo sapiens, UniProt Q9H0H5).
T4 sequence (Q9H0H5 whole entry): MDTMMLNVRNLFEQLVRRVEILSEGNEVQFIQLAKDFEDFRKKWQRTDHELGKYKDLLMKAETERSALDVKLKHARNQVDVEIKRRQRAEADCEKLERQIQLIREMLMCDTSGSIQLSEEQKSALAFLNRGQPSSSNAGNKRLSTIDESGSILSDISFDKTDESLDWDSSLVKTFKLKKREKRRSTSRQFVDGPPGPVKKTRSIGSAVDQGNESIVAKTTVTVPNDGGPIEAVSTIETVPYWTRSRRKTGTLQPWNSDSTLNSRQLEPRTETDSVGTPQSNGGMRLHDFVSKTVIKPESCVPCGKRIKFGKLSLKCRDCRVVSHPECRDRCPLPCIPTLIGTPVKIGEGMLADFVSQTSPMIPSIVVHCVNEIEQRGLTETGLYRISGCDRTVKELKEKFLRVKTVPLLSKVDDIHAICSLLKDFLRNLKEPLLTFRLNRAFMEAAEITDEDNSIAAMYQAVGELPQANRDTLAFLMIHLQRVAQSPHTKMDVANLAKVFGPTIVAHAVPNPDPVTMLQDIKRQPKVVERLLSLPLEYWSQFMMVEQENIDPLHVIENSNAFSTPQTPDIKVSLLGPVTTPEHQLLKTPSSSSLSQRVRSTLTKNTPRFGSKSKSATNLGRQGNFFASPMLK
Put plainly: MgcRacGAP GTPase-activating activity inhibitors, confirmation, biochemical, ADP Hunter fluorescence, primary and confirmatory (AID 624330). The assay is classed as functional.

The target in another assay is Troponin, cardiac muscle (Homo sapiens, UniProt P19429+P45379+P63316). Put plainly: Fluorescence-based biochemical high throughput dose response assay for activators of the calcium sensitivity of cardiac Regulated Thin Filaments (RTF). [Related pubchem assays (depositor defined):AID493008, AID493018, AID504382, AID504383]. The class given is protein-complex assay.

The next assay deals with Ion channel NompC (Danio rerio, UniProt Q7T1G6). Put plainly: Dose response cell-based high-throughput screening assay for agonists of the transient receptor potential channel N1 (TRPN1). [Related pubchem assays (depositor defined):AID1424, AID1448]. The assay is classed as functional.
The target in assay [9] is Eukaryotic translation initiation factor 4E (Mus musculus, UniProt P63073). The assay can be described thus: eIF4E–eIF4G protein interaction inhibitors, dose response, biochemical, TR-FRET (AID 855).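 Further: potency for disrupting eIF4E binding to eIF4GI seen as loss of FRET.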 The assay is classed as functional. A general note: In TR-FRET formats the signal depends on donor and acceptor labels being close together.
Assay [10] has as its target DNA dC->dU-editing enzyme APOBEC-3G (Homo sapiens, UniProt Q9HC16). The assay is classed as functional.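 Further: Dose-response counterscreen measuring inhibition of APOBEC3G DNA deaminase activity, run while confirming APOBEC3A inhibitors.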
The target of assay [11] is DNA dC->dU-editing enzyme APOBEC-3A (Homo sapiens, UniProt P31941). Put plainly: Dose Response confirmation of small molecule APOBEC3A DNA Deaminase Inhibitors via a fluorescence-based single-stranded DNA deaminase assay. [Related pubchem assays (depositor defined):AID493011, AID493024]. The class given is functional.

One may read the EC50 as the concentration at which the effect is half-maximal. In general, IC50 refers to the midpoint of a concentration-inhibition curve. For orientation: CC50 means the concentration that lowers cell viability or growth by half.

Active and inactive are the calls of the source. A value given as a limit tells only on which side of the number the result lay.

T2 sequence (Q9Y2R2 whole entry): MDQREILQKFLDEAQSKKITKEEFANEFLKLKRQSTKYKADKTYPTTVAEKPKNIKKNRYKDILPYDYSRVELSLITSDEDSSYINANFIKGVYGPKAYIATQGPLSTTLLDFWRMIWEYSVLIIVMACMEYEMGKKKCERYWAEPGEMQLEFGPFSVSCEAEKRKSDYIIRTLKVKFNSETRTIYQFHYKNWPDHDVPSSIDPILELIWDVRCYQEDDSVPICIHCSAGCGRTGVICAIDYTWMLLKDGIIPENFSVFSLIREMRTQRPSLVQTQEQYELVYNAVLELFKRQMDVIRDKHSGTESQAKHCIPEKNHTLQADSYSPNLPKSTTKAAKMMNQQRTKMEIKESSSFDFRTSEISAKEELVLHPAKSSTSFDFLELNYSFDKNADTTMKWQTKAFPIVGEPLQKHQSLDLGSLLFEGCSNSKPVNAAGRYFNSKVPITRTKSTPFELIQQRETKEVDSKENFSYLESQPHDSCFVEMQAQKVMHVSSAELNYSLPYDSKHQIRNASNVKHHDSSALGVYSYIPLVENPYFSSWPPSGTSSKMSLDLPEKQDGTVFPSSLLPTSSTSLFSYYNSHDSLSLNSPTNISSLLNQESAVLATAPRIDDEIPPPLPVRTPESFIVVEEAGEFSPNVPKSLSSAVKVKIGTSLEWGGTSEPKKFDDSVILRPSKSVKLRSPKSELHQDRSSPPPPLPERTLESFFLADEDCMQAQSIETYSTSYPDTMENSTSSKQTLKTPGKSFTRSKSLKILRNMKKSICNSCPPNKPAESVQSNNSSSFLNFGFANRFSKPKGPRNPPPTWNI
Sequence of DNA dC->dU-editing enzyme APOBEC-3A (P31941 whole entry): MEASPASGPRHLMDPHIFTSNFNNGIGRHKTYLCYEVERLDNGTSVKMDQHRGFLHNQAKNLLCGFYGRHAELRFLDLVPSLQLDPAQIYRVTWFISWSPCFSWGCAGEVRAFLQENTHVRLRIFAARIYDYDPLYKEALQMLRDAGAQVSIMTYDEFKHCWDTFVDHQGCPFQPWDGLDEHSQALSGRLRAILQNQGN
Sequence of DNA dC->dU-editing enzyme APOBEC-3G (Q9HC16 whole entry): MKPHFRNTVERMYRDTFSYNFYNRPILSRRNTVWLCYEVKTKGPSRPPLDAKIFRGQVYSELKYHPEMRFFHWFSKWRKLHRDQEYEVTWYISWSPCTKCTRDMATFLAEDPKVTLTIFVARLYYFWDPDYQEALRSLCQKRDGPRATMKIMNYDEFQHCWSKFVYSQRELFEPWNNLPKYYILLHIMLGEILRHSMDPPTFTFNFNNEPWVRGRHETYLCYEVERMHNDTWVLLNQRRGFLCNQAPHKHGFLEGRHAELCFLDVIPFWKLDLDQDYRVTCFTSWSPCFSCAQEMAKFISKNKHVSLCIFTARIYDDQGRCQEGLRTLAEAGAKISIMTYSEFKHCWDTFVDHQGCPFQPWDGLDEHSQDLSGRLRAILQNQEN
Sequence of Ion channel NompC (Q7T1G6 whole entry): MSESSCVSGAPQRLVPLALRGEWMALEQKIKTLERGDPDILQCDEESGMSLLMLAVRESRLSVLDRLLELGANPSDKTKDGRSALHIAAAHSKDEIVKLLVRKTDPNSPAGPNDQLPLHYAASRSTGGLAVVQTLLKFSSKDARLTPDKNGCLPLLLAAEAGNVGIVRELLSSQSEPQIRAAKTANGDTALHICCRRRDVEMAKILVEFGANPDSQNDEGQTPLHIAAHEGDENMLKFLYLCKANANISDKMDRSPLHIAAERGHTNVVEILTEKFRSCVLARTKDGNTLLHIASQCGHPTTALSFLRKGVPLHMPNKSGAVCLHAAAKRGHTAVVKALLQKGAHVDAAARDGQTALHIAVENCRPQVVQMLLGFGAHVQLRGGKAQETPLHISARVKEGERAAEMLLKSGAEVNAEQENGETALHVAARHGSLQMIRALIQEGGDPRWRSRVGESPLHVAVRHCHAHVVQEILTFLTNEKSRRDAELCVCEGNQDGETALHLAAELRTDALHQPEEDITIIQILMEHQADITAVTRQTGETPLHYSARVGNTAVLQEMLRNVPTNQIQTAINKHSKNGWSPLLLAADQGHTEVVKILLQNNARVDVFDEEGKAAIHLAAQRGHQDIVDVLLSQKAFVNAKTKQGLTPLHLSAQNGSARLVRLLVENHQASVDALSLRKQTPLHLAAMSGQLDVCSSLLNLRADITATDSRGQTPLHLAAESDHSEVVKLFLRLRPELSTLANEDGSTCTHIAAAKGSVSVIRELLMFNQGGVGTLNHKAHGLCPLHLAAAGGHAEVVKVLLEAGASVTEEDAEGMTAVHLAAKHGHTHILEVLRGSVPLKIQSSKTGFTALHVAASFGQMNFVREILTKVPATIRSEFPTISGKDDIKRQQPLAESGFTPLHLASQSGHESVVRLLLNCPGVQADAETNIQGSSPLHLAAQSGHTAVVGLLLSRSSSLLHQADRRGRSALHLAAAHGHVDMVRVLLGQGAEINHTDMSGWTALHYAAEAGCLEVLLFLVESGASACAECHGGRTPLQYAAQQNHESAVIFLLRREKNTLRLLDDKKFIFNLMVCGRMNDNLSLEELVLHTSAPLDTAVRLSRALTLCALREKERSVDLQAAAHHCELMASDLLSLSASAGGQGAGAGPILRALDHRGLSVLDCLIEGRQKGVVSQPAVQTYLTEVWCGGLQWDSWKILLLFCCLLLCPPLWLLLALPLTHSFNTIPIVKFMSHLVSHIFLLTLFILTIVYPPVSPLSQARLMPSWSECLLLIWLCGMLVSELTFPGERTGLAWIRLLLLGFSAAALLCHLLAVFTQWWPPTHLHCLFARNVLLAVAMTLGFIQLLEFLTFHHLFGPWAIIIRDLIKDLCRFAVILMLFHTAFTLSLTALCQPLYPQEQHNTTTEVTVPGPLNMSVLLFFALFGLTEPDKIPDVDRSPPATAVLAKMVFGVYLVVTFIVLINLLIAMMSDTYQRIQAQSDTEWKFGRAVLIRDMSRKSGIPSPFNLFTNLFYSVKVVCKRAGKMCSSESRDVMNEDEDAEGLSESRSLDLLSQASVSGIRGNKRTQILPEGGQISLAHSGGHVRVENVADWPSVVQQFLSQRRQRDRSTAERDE
Sequence of Eukaryotic translation initiation factor 4E (P63073 whole entry): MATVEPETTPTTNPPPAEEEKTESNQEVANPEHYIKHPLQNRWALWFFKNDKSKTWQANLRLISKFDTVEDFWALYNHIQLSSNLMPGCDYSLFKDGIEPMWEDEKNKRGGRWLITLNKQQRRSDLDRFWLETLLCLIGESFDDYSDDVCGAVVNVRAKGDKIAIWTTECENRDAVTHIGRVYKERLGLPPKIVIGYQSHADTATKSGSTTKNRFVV
Sequence of Hexokinase (Q38C41 whole entry, the tested form may be a part): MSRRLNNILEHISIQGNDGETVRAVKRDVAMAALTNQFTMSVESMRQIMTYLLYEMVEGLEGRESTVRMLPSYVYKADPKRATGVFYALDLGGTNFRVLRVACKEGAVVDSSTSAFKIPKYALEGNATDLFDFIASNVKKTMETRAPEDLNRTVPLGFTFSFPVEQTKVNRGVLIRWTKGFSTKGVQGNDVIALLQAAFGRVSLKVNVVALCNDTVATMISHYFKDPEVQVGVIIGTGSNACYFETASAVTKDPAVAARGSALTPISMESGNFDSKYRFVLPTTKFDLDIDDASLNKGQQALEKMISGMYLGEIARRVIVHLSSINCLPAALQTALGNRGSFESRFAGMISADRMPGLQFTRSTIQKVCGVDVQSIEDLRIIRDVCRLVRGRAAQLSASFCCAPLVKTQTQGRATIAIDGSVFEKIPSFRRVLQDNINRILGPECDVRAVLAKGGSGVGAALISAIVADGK
Sequence of Tyrosine-protein phosphatase non-receptor type 12 (Q05209 whole entry): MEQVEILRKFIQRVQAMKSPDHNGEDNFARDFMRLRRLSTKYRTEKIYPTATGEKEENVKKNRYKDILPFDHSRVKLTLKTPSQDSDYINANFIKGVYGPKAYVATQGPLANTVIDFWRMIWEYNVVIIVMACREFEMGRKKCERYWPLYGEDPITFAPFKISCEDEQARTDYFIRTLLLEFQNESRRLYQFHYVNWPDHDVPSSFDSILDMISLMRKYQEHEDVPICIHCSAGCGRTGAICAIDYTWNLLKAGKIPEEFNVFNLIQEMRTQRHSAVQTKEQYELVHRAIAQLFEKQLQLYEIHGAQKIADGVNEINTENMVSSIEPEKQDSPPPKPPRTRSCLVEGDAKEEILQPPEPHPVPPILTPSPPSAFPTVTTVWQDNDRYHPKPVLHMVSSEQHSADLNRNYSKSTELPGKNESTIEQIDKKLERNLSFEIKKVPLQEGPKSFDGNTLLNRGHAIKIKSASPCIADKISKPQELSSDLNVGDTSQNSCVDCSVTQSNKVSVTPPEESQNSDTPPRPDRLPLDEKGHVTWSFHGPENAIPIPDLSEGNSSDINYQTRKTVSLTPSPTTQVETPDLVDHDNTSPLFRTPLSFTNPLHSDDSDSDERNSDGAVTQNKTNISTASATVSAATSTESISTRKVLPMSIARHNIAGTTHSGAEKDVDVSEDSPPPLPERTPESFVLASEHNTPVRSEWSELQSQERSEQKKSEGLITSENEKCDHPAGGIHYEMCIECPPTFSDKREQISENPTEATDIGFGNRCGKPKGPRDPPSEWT
Sequence of Beta Lactamase (Q932Y6 whole entry): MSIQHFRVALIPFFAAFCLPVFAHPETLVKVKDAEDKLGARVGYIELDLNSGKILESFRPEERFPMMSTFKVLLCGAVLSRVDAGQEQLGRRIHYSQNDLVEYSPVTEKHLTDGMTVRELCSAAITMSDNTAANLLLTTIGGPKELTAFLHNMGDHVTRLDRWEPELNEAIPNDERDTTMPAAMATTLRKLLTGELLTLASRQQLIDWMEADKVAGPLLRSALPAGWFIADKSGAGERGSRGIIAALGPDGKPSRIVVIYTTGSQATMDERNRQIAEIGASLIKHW

As to `Cc1ccc(OCc2ccc(Cl)c(Cl)c2)c([N+](=O)[O-])n1`, in assay [1], the EC50 was > 50 µM (inactive).

In the case of `Cc1ccc(NC(=O)Cn2sc3ccccc3c2=O)cc1`, the IC50 was 5.18 µM (active) on Hexokinase, 5.7 µM (active) in assay [2], 17.7 µM (inactive) at Beta Lactamase and 15.1 µM (active) in assay [3].

On to `CCOC(=O)C1=C(C)N=c2sc(=Cc3ccc(OCC(=O)O)cc3)c(=O)n2C1c1ccc(OC(C)C)cc1` (stereo unspecified), for which the concentration for half-maximal inhibition (IC50) was 25.7 µM (active) in assay [4], 3.85 µM (active) in assay [5] and 45.1 µM (active) in [6].

Turning to `COc1cc(/C=C(\C#N)c2nc3ccccc3[nH]2)cc(OC)c1O`, in assay [7], the CC50 is 100 µM (active). For the same molecule, the concentration giving a half-maximal response (EC50) on Mucolipin-3 is 8.88 µM (active); at Troponin, cardiac muscle, 4.89 µM (active); at Ion channel NompC it was 3.62 µM (active). Besides, the IC50 in [8] was 20 µM (active); in assay [9] it was 50 µM (inactive).

For `O=C(CNC(=O)OCc1ccccc1)Nc1ccc(F)cc1`, the half-maximal inhibitory concentration (IC50) in [10] was 5.01 µM (active); in assay [11], 3.04 µM (active).
